Earlier results, collected in patent US20250213514A1, “STABLE, LIQUID PHARMACEUTICAL COMPOSITIONS COMPRISING MELPHALAN” (GOOD HEALTH, LLC, priority 2022, published 2025).
Where two headings read alike, the source gives them in different places.

## N[C@@H](Cc1ccc(N(CCCl)CCCl)cc1)C(=O)O [Melphalan]
In ethanol, methanol
  Solubility: slightly soluble
In propylene glycol and dilute mineral acids
  Solubility: soluble
In water, chloroform, and ether
  Solubility: practically insoluble
